Experimental data as given in patent publication US7776882B2, “2-amino-3,4-dihydro-quinoline derivatives useful as inhibitors of β-secretase (BACE)” (priority 2006, dated 2010).

Legend:
Format in all cases: biochemical
[1] = target: T1, β-secretase (BACE) (Homo sapiens, UniProt P56817); assay: In Vitro BACE % Inhibition Assay, (Aedens)-[…]-(Dabcyl K-amide) substrate (Example 12); settings: for % Inhibition 3 μM: 3 μM compound; for % Inhibition 3 μM / % Inhibition 10 μM: values below about 25% (including negative) within noise; for % Inhibition 10 μM: 10 μM compound
T1 construct: purchased Panvera
T1 sequence (P56817 46-501): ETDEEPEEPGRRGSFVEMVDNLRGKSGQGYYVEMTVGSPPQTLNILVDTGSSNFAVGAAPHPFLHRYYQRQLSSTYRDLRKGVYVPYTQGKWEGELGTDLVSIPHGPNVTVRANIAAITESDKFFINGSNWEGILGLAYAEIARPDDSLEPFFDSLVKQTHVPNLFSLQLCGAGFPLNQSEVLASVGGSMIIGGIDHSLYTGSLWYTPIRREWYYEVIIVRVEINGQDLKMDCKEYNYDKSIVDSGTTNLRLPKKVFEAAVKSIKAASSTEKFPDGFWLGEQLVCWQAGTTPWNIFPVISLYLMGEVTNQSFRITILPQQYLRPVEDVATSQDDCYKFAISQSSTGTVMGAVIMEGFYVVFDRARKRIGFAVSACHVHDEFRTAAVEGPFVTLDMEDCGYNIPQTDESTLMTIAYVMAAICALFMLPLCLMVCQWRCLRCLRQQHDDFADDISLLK
Experimental: The following reagents were used in this assay: sodium acetate, PEG8000 (Sigma), DMSO, HEPES, (Aedens)-[…]-(Dabcyl K-amide) substrate, β-secretase (BACE) (Panvera), and 96-well plate (HE microplate, Molecular Devices).
(§1) The following assay buffers were prepared and used in this assay: (1) enzyme assay buffer (0.05 M sodium acetate, pH5, 0.1% PEG8000 (w/v)), (2) substrate assay buffer (0.05 M sodium acetate, pH5), and (3) compound vehicle (30% DMSO in 50 mM HEPES, pH 7.4).
(§2) The substrate stock solution was prepared in DMSO as a 10 mg/mL solution. The substrate working solution was prepared by diluting the 10 mg/mL stock solution with substrate assay buffer to a final concentration of 300 μg/mL. The β-secretase (BACE) working solution was prepared by diluting a 0.83 mg/mL BACE stock solution with enzyme assay buffer to a final concentration of 4 μg/mL.
Test compounds were dissolved in DMSO to 10 mM. Compounds were further diluted in vehicle to various concentrations in the range of 405 μM to 4.05 μM (13.5×final compound concentration in screening plate).
The screening procedure for this assay was as follows: 15 μL of BACE working solution was pipetted into each well of a 96-well plate. To each well was then pipetted 2 μL of test compound at the selected concentration. Test compound and BACE were then mixed with a pipettor and incubated for 20 min at room temperature. To each well was then added 10 μL of the substrate working solution. The plates were then incubated for 1 hour at room temperature. The fluorescence for each well was then measured on an LJL analyst (Ex 360 nm/Em 530 nm).
The procedure for the blank (negative control) was as follows. 15 μL of assay buffer was pipetted into each well to be used as a blank control. To each well was then added 2 μL of vehicle and 10 μL of substrate working solution. The plates were then incubated for 1 hour at room temperature. The fluorescence was measured on an LJL analyst (Ex 360 nm/Em 530 nm).
The procedure for the positive control was as follows: 15 μl of BACE working solution was pipetted into each well to be used as a positive control. To each well was then pipetted 2 μL of vehicle. Vehicle and BACE were then mixed with a pipettor and incubated for 20 min at room temperature. To each well was then added 10 μL of the substrate working solution. The plates were then incubated for 1 hour at room temperature. The fluorescence (Fl) was then measured on an LJL analyst (Ex 360 nm/Em 530 nm).
For test compounds, % inhibition was determined at each concentration as follows:
% Inhibition values of less than 30% were indistinguishable from control and are listed as ≦30% in the Table below.

[2] = target: T1, β-secretase (BACE); assay: In Vitro BACE Assay, Ki (Example 11); settings: Ki (μM) (Example 11), FS1 substrate 50 μM, Km 24 μM
Experimental: The following reagents were used in this assay: sodium acetate, PEG8000 (Sigma), DMSO, HEPES, FS1 substrate [R(AedensE)[…]-(DabcylK)R], β-secretase (BACE) (Panvera), and 96-well plate (HE microplate, Molecular Devices).
as §1
as §2, with “The FS1-substrate” for “The substrate”
Test compounds were dissolved in DMSO at 10 mM.
(§3) The procedure for this assay was as follows: 15 μL of BACE working solution was pipetted into each well of a 96-well plate. To each well was then pipetted 2 μL of test compound at the selected concentration. Test compound and BACE were then mixed with a pipettor and incubated for 20 min at room temperature. To each well was then added 10 μL of the FS1 substrate working solution. The fluorescence for each well was then measured on a Polarstar fluorometer (Ex 390 nm/Em 520 nm) for 20 min at room temperature, reading fluorescence at 1 min intervals.
as §3, with “for the positive control” for “for this assay”, “well to be used as” for “well of”, “a positive control.” for “a 96-well plate.”, “of vehicle. Vehicle” for “of test compound at the selected concentration. Test compound”, “fluorescence” for “fluorescence for each well”
For test compounds, Ki inhibition was determined as follows: For each compound concentration and positive control, rate of cleavage of substrate (Vi, where i=compound concentration in μM) was determined as Δ Fluorescence/Δ time (min). Cleavage rates (Vi) were plotted as a function of inhibitor concentration in μM [I]. The Ki was then determined by fitting the following equation to the graph of [I] vs Vi Y=aVmax/(50+24*(1+X/Ki)),

[3] = target: T1, β-secretase (BACE); assay: In Vitro BACE IC50 Assay, MCA-substrate (Example 13); settings: 1 hour at room temperature
Excerpt: The following standards are reagents were used in this assay: Sodium Citrate trisodium salt dihydrate (Sigma), Citric Acid monohydrate (Merck), PEG8000 (Sigma), MCA-substrate (Bachem), β-secretase (BACE) (Panvera), 96-well black plate (Costar (Elscolab)), StatVal (Bachem). The standard assay buffer solution prepared and used in this assay is as follows: 0.05 M, pH 5.0 mixture of sodium citrate trisodium salt dihydrate (9.56 g), citric acid monohydrate (3.68 g) and PEG8000 (0.50 g). The MCA-substrate stock solution was prepared by mixing 10 mg MCA-substrate with 5 mL DMSO for a final solution concentration of 2.0 mg/mL. […]
Briefly, the procedure for this BACE IC50 assay was as follows. […] Each well was mixed for a few seconds and the T0 measured with a Fluoroscan Ex320/Em405. The plates were then incubated for 1 hour at room temperature and the T60 measured with the Fluoroscan Ex 320 nm/Em 405 nm.
The procedure for the blank (reference well) was as follows. […] The T0 was measured with the Fluoroscan Ex 320 nm/Em 405 nm, the plate was incubated for 1 hour at room temperature and the T60 was then measured with the Fluoroscan Ex 320 nm/Em 405 nm.
The procedure for the positive control was as follows. […] The T0 was measured with the Fluoroscan Ex 320 nm/Em 405 nm, the plate was incubated for 1 hour at room temperature and the T60 was then measured with the Fluoroscan Ex 320 nm/Em 405 nm. […]

Row | Compound | % Inhibition 3 μM [1] [%] | % Inhibition 10 μM [1] [%] | IC50 [3] [nM] | other results
1 | CN(C(=O)CCC1Cc2cc(Oc3ccccc3)ccc2N=C1N)C1CCCCC1 (stereo not shown) [compound 101] |  |  |  | Ki [1]: 280 nM; Ki [2]: 0.1 µM
2 | CN(C(=O)CC[C@H]1Cc2cc(Oc3ccccc3)ccc2N=C1N)C1CCCCC1 [compound 102] |  |  | 170 | 
3 | CN(C(=O)CC[C@@H]1Cc2cc(Oc3ccccc3)ccc2N=C1N)C1CCCCC1 [compound 103] |  |  | 220 | 

More lines, main results first:

Row | % Inhibition 3 μM [1] [%] | % Inhibition 10 μM [1] [%] | IC50 [3] [nM] | Compound | other results
4 | −8.5 | 9 |  | CN(C(=O)CCc1cc2cc(Oc3ccccc3)ccc2nc1N)C1CCCCC1 [compound 1] | 
5 | 12 | −36 |  | CC(C)(C)OC(=O)CCc1cc2cc(Oc3ccccc3)ccc2nc1N [compound 501] | 
6 | −8 | −16 |  | Nc1nc2ccc(Oc3ccccc3)cc2cc1CCC(=O)O [compound 502] | 
